Results reported in patent US10106510B2, “Substituted isoxazoles for treating cancer” (EPIZYME, INC., priority 2014, dated 2018).
pIC50: −log10 of the molar value.

target: SMYD3 (Homo sapiens (Human), UniProt Q9H7B4); assay: SMYD3 biochemical assay (SMYD3 enzyme assay on MEKK2 protein substrate, scintillation proximity assay); conditions: 3H-SAM, SPA, IC50 values are an average of n = 1 to n = 50, read-out: SMYD3 Biochem IC50
From the text: S-adenosylmethionine (SAM), S-adenosylhomocysteine (SAH), Tris, Tween20, dimethylsulfoxide (DMSO), bovine skin gelatin (BSG), and Tris(2-carboxyethyl)phosphine hydrochloride solution (TCEP) were purchased from Sigma-Aldrich at the highest level of purity possible. ^3H-SAM was purchase from American Radiolabeled Chemicals with a specific activity of 80 Ci/mmol. 384-well opaque white OptiPlates and SPA beads (Perkin Elmer, catalog # RPNQ0013) were purchased from PerkinElmer.
N-terminally GST-tagged MEKK2 (MAP3K2) protein corresponding to reference sequence AAF63496.3 was purchased from Life Technologies (catalog # PV4010). […] Protein identity was confirmed by MS/MS analysis after proteolytic digestion. The protein sequence used was:
Full-length human SMYD3 isoform 1 (BAB86333) was inserted into a modified pET21b plasmid containing a His6 tag and TEV and SUMO cleavage sites. Because two common variants of SMYD3 exist in the population, site directed mutagenesis was subsequently performed to change amino acid 13 from an asparagine to a lysine, resulting in plasmid pEPZ533.
E. coli (BL21 codonplus RIL strain, Stratagene) were transformed with plasmid pEPZ553 by mixing competent cells and plasmid DNA and incubating on ice for 30minutes followed by heat shock at 42° C. for 1 minute and cooling on ice for 2 minutes. Transformed cells were grown and selected on LB agar with 100 μg/mL ampicillin and 17 μg/mL chloramphenicol at 37° C. overnight. A single clone was used to inoculate 200 mL of LB medium with 100 μg/mL ampicillin and 17 μg/mL chloramphenicol and incubated at 37° C. on an orbital shaker at 180 rpm. Once in log growth, the culture was diluted 1:100 into 2 L of LB medium and grown until OD600 was about 0.3 after which the culture was incubated at 15° C. and 160 rpm. Once OD600 reached about 0.4, IPTG was added to a final concentration of 0.1 mM and the cells were grown overnight at 15° C. and 160 rpm. Cells were harvested by centrifugation at 8000 rpm, for 4 minutes at 4° C. and stored at −80° C. for purification.
The column was washed with Buffer B (Buffer A plus 20 mM imidazole) and His-tagged SMYD3 was eluted with Buffer C (Buffer A plus 300 mM imidazole). The His tag, TEV and SUMO cleavage sites were removed generating native SMYD3 by addition of ULP1 protein at a ratio of 1:200 (ULP1:SMYD3). Imidazole was removed by dialysis overnight in Buffer A. The dialyzed solution was applied to a second Nickel column and the native SMYD3 protein was collected from the column flow-through. The flow-through was dialyzed in Buffer D (25 mM Tris, 5% glycerol, 5 mM β-mercaptoethanol, 50 mM NaCl, pH7.8) and ULP1 was removed using a Q sepharose fast flow column.
General Procedure for SMYD3 Enzyme Assays on MEKK2 Protein Substrate
The assays were all performed in a buffer consisting of 25 mM Tris-Cl pH 8.0, 1 mM TCEP, 0.005% BSG, and 0.005% Tween 20, prepared on the day of use. Compounds in 100% DMSO (1 ul) were spotted into a 384-well white opaque OptiPlate using a Bravo automated liquid handling platform outfitted with a 384-channel head (Agilent Technologies). DMSO (1 ul) was added to Columns 11, 12, 23, 24, rows A-H for the maximum signal control and 1 ul of SAH, a known product and inhibitor of SMYD3, was added to columns 11, 12, 23, 24, rows I-P for the minimum signal control. A cocktail (40 ul) containing the SMYD3 enzyme was added by Multidrop Combi (Thermo-Fisher). The compounds were allowed to incubate with SMYD3 for 30 min at room temperature, then a cocktail (10 ul) containing SAM and MEKK2 was added to initiate the reaction (final volume=51 ul).

Chain of SMYD3 (Q9H7B4 whole entry): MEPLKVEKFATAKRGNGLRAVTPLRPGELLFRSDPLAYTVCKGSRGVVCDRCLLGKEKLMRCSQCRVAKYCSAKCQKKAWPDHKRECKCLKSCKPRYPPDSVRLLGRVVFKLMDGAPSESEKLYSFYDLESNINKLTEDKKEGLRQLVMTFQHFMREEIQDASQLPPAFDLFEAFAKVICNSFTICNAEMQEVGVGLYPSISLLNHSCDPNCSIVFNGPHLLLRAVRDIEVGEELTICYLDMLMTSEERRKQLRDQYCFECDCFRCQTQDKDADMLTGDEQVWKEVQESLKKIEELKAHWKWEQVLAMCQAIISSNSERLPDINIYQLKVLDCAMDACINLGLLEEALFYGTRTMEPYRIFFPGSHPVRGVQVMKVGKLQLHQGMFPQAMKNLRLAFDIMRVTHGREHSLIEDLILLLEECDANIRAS

Structure (SMILES)	pIC50
COCCN(C(=O)c1cc(C2CC2)on1)[C@H]1CC[C@H](NC(=O)C[C@@H](C)N)CC1 [compound 40, N-((1R,4r)-4-((R)-3-aminobutanamido)cyclohexyl)-5-cyclopropyl-N-(2-methoxyethyl)isoxazole-3-carboxamide]	5.01
C[C@@H](N)CC(=O)N[C@H]1CC[C@H](N(CCc2ccccc2)C(=O)c2cc(C3CC3)on2)CC1 [compound 41, N-((1R,4r)-4-((R)-3-aminobutanamido)cyclohexyl)-5-cyclopropyl-N-phenethylisoxazole-3-carboxamide]	5.24
NCCC(=O)N[C@H]1CC[C@H](N(CCc2ccccc2)C(=O)c2cc(C3CC3)on2)CC1 [compound 42, N-((1r,4r)-4-(3-aminopropanamido)cyclohexyl)-5-cyclopropyl-N-phenethylisoxazole-3-carboxamide]	4.97
CC(C)CN(C(=O)c1cc(C2CC2)on1)[C@H]1CC[C@H](NC(=O)CCN)CC1 [compound 43, N-((1r,4r)-4-(3-aminopropanamido)cyclohcxyl)-5-cyclopropyl-N-isobutylisoxazole-3-carboxamide]	5.35
COCCN(C(=O)c1cc(C2CC2)on1)[C@H]1CC[C@H](NC(=O)CCN)CC1 [compound 44, N-((1r,4r)-4-(3-aminopropanamido)cyclohexyl)-5-cyclopropyl-N-(2-methoxyethyl)isoxazole-3-carboxamide]	4.79
C[C@@H](N)CC(=O)N[C@H]1CC[C@H](N(Cc2ccccc2)C(=O)c2cc(C3CC3)on2)CC1 [compound 45, N-((1R,4r)-4-((R)-3-aminobutanamido)cyclohexyl)-N-benzyl-5-cyclopropylisoxazole-3-carboxamide]	5.09
NCCC(=O)N[C@H]1CC[C@H](N(Cc2ccccc2)C(=O)c2cc(C3CC3)on2)CC1 [compound 46, N-((1r,4r)-4-(3-aminopropanamido)cyclohexyl)-N-benzyl-5-cyclopropylisoxazole-3-carboxamide]	5.36
CC(C)CN(C(=O)c1cc(C2CC2)on1)[C@H]1CC[C@H](NC(=O)C[C@@H](C)N)CC1 [compound 47, N-((1R,4r)-4-((R)-3-aminobutanamido)cyclohexyl)-5-cyclopropyl-N-isobutylisoxazole-3-carboxamide]	5.51
CC(C)CN(C(=O)c1cc(C2CC2)on1)[C@H]1CC[C@H](NC(=O)C[C@H](C)N)CC1 [compound 48, N-((1S,4r)-4-((S)-3-aminobutanamido)cyclohexyl)-5-cyclopropyl-N-isobutylisoxazole-3-carboxamide]	5.42
COCCN(C(=O)c1cc(C2CC2)on1)[C@H]1CC[C@H](NC(=O)C[C@H](C)N)CC1 [compound 49, N-((1S,4r)-4-((S)-3-aminobutanamido)cyclohexyl)-5-cyclopropyl-N-(2-methoxyethyl)isoxazole-3-carboxamide]	4.72
C[C@@H](N)CC(=O)N[C@H]1CC[C@H](N(CCO)C(=O)c2cc(C3CC3)on2)CC1 [compound 50, N-((1R,4r)-4-((R)-3-aminobutanamido)cyclohexyl)-5-cyclopropyl-N-(2-hydroxyethyl)isoxazole-3-carboxamide]	4.84
C[C@H](N)CC(=O)N[C@H]1CC[C@H](N(CCO)C(=O)c2cc(C3CC3)on2)CC1 [compound 51, N-((1S,4r)-4-((S)-3-aminobutanamido)cyclohexyl)-5-cyclopropyl-N-(2-hydroxyethyl)isoxazole-3-carboxamide]	4.86
NCCC(=O)N[C@H]1CC[C@H](N(CCO)C(=O)c2cc(C3CC3)on2)CC1 [compound 52, N-((1r,4r)-4-(3-aminopropanamido)cyclohexyl)-5-cyclopropyl-N-(2-hydroxyethyl)isoxazole-3-carboxamide]	4.77
C[C@H](N)CC(=O)N[C@H]1CC[C@H](N(Cc2ccccc2)C(=O)c2cc(C3CC3)on2)CC1 [compound 53, N-((1S,4r)-4-((S)-3-aminobutanamido)cyclohexyl)-N-benzyl-5-cyclopropylisoxazole-3-carboxamide]	4.71
C[C@H](N)CC(=O)N[C@H]1CC[C@H](N(CCc2ccccc2)C(=O)c2cc(C3CC3)on2)CC1 [compound 54, N-((1S,4r)-4-((S)-3-aminobutanamido)cyclohexyl)-5-cyclopropyl-N-phenethylisoxazole-3-carboxamide]	4.94
C[C@@H](N)CC(=O)N[C@H]1CC[C@@H](N(C)C(=O)c2cc(C3CC3)on2)CC1 [compound 55, N-((1S,4s)-4-((R)-3-aminobutanamido)cyclohexyl)-5-cyclopropyl-N-methylisoxazole-3-carboxamide]	4.61
C[C@@H](N)CC(=O)N[C@H]1CC[C@H](N(C)C(=O)c2cc(C3CC3)on2)CC1 [compound 56, N-((1R,4r)-4-((R)-3-aminobutanamido)cyclohexyl)-5-cyclopropyl-N-methylisoxazole-3-carboxamide]	5.03
C[C@H](N)CC(=O)N[C@H]1CC[C@@H](N(C)C(=O)c2cc(C3CC3)on2)CC1 [compound 57, N-((1R,4s)-4-((S)-3-aminobutanamido)cyclohexyl)-5-cyclopropyl-N-methylisoxazole-3-carboxamide]	4.59
C[C@H](N)CC(=O)N[C@H]1CC[C@H](N(C)C(=O)c2cc(C3CC3)on2)CC1 [compound 58, N-((1S,4r)-4-((S)-3-aminobutanamido)cyclohexyl)-5-cyclopropyl-N-methylisoxazole-3-carboxamide]	5.21
CN(C(=O)c1cc(C2CC2)on1)[C@H]1CC[C@@H](NC(=O)CCN)CC1 [compound 59, N-((1s,4s)-4-(3-aminopropanamido)cyclohexyl)-5-cyclopropyl-N-methylisoxazole-3-carboxamide]	4.44
CN(C(=O)c1cc(C2CC2)on1)[C@H]1CC[C@H](NC(=O)CCN)CC1 [compound 60, N-((1r,4r)-4-(3-aminopropanamido)cyclohexyl)-5-cyclopropyl-N-methylisoxazole-3-carboxamide]	5.28
